Reference: patent publication US20060058346A1, “Novel enantiomers of etrahydroisoquinoline derivatives and theirpharmaceutically acceptable salts, their preparations and pharmaceutical compositions” (priority 2002, published 2006)
Where two headings read alike, the source gives them in different places.

Assays:
rat PRP = experiment: Inhibition of platelet aggregation in rat PRP; assay type: cell-based; settings: for IC50: Platelet, rat PRP; for inhibitory effect on epinephrine-induced platelet aggregation, times as strong as R-enantiomer: S versus R; for inhibitory effect on epinephrine-induced platelet aggregation, times as strong as racemic mixture: S versus racemic mixture; for inhibition of platelet aggregation induced by ADP: even at the concentration as high as 1×10^−3 M
Description: Male rat (weighing 200±20 g) was anaesthetized with ether. The blood (nine volumes) was collected from heart using a plastic syringe containing 2.2% sodium citrate (one volume). The collected blood was centrifuged at 200×g for 10 minutes to give supernatant platelet-rich plasma (PRP). The residue was centrifuged again at 700×g for 30 minutes, giving platelet-poor plasma (PPP) for experiment. We used a platelet analyzer to count the number of platelet of the PRP. PRP was diluted with physiological saline solution to prepare solution containing platelets in an amount of 400-450×10^6/ml. The inhibitory effects of the compound represented by formulas 3 to 8 was evaluated by platelet aggregation analyzer, and the inhibitory effect of each compound is given as % below. That is, after PRP was incubated for 3 minutes at 37° C., the compounds or a carrier was added thereto, and after 1 min, platelet aggregation-inducing agent such as ADP, collagen, arachidonic acid (AA), U46619 or epinephrine was added thereto, followed by investigation of turbidity caused by aggregation of platelets. % Inhibition=A−B/A×100 [arithmetic formula 1] • (A: Platelet aggregation rate in group treated with an aggregation-inducing agent; • B: Platelet aggregation rate in group treated with both an aggregation-inducing agent and the enantiomers simultaneously)

left auricle muscle = experiment: Contractile force of left auricle muscle excised from rats; design: species or system rat; settings: for Contractile Force of Auricle Muscles: vehicle control:100%
Description: Immediately after Sprague-Dawley rats (female or male) were anaesthetized with pentobarbital sodium (50 mg/kg, i.m.), the thorax was opened to excise the heart. The heart was submerged in Krebs solution, and left auricle muscle and right auricle muscle were then isolated. The left auricle muscle was placed in an organ bath for recording of contractile force, and applied with electrical field stimulation (voltage 10% higher than threshold voltage, 1 Hz frequency, 5 ms duration). In the case of right auricle muscle, which contracts spontaneously, the number of continuous beats was recorded. In this experiment, to measure contractile fore of the two auricle muscles, the organ bath was warmed to 37° C., and as a physiological solution, Krebs solution (119.8 mM NaCl, 4.6 mM KCl, 2.5 mM CaCl2, 1.2 mM MgCl2, 25 mM NaHCO3, 1.2 mM KH2PO4, 10 mM glucose, 1 mM EDTA, pH 7.4) was used. The Krebs solution (pH 7.4) was continuously saturated with a gas mixture of 95% O2 and 5% CO2. The auricle muscle was under a tension of 1 g, and Krebs solution was exchanged with fresh solution at intervals of 20 minutes while equilibrium was maintained during a recording period of 60 minutes.

[1] = Acute toxicity in rat (LD50); assay type: in vivo; settings: Sprague-Dawley, in vivo
Description: Sprague-Dawley rats (six weeks) were used as test sample. Each group was comprised of two rats. […] The said emulsion was administered to two rats one times using intravenous injection and intraperitoneal injection.

[2] = tested on: RAW 264.7 macrophage cells; experiment: Nitric oxide production in macrophage cell stimulated by LPS (Griess); assay type: cell-based; settings: for NO production by LPS in macrophage cell: LPS 1 μg/ml; for inhibition of production of NO: LPS-stimulated macrophage cell
Description: RAW 264.7 macrophage cells were plated on 100 mm culture dishes at a density of 1-2×10^5 cells. Thereafter, the said macrophage cell was incubated in DMEM medium containing 10% fetal calf serum (heat-inactivated), 100 U/ml penicillin, and […] streptomycin in a CO2 incubator. The said macrophage cell was incubated therein confluently. The said incubated macrophage cells were transferred to serum-free DMEM medium, and further incubated therein for about 24 hours. Thereafter, macrophage cells were stimulated with LPS (1 μg/ml) for about 8 hours. (In this progress, experimental group was divided into two groups, group to which the compound was administered, and group to which the compound was not.) Then, nitrite quantification was achieved by performing calorimetric reaction for produced nitrite with Griess reagent and then measuring absorbance at 550 nm, while using NaNO2 as a standard.

LPS-injected rat = experiment: Survival in LPS-injected rat; assay type: in vivo; settings: for survival at 30 mg/kg than 15 mg/kg: LPS 20 mg/kg
Description: Rats (25˜30 g, ICR), originated from NIH cancer institute (Bethesda, Md., USA) were purchased from Korea Test Animal Corp. (Unsung, Korea). 20 mg/kg of LPS was injected to abdominal cavity of the rat. Thereafter, survival was observed every 24 hours for seven days, to investigate effect of enantiomer on the survival in LPS-injected rat. The compound represented by formula 3 to 8 was administered 30 min before the LPS injection.

[3] = tested on: rat with DIC and MOF induced by endotoxin; experiment: Endotoxin-induced DIC and multiple organ failure in rat; assay type: in vivo; settings: for serum level of FDP compared with R-configuration: 10 mg/kg, FIG. 4
Description: Rats (Crj:CD(SD); 250±20 g) were used to test sample. Before the compound was administered, the rat was not fed. The compound was orally administered one time per day for two days in an amount of 10 mg˜25 mg/10 ml/kg/day. Distilled water (control group and LPS group) or enantiomer was administered to the rat repeatedly. After one hour, rat was anaesthetized with intramuscular injection of 50 mg/kg of pentobarbital. […] Thereafter, 50 mg/kg of pentobarbital was injected at 2 hour to the rat by intramuscular injection. Therefore, the rat was anaesthetized for all the experiment and operation.
The blood (2 ml for FDP and 6 ml for other variables) was collected from abdominal artery using a plastic syringe, into glass tube containing soy bean trypsin inhibitor and Bothrops atrox venom to measure FDP and into plastic tube containing 2.2% sodium citrate (1/10, volume/volume). The aggregated blood was centrifuged at 1200×g for 5 minutes two times. Before measurement of FDP, the supernatant was stored at freezer for at least 12 hours. Citrated blood was centrifuged at 2000×g for 30 minutes. The supernatant was used for measurement of fibrinogen and PT or APTT time. The aggregated blood collected in glass tube was disposed at the room temperature for 30 min, centrifuged to give the serum for measurement of AST and BUN.
Platelet from total citrated blood was counted by using automatic platelet counter (PLT-4, Texas International Lab.) PT or APTT time was measured by Beckton Dickenson BBL Fibrosystem (Coctkeysville, USA). FDP analysis was accomplished by using Thrombo-wellcotest kit. The said analysis was accomplished by up and down dilution method semi-quantitatively. Measurement of AST and BUN was accomplished by using Autobiochemical analyzer (Hitach 747, Japan).

[4] = ADP 2 − 5 × 10^−6 M, read-out: IC50 platelet aggregation, ADP
[5] = U46619 1.5 × 10^−6 M with threshold collagen, read-out: IC50 platelet aggregation, U46619
[6] = arachidonic acid 1 − 4 × 10^−5 M with threshold collagen, read-out: IC50 platelet aggregation, AA
[7] = collagen 2 − 5 × 10^−6 g/ml, read-out: IC50 platelet aggregation, collagen
[8] = epinephrine 1 − 4 × 10^−6 M with threshold collagen, read-out: IC50 platelet aggregation, Epinephrine
[9] = ip, single intraperitoneal injection, read-out: LD50, Intraperitioneal injection
[10] = single intravenous injection, read-out: LD50, Intravenous injection
[11] = 15 mg/kg compound 30 min before LPS 20 mg/kg i.p.
[12] = 30 mg/kg compound 30 min before LPS 20 mg/kg i.p.

Row | Compound | IC50 (rat PRP; [4]) [µM] | IC50 (rat PRP; [5]) [µM] | IC50 (rat PRP; [6]) [µM] | IC50 (rat PRP; [7]) [µM] | IC50 (rat PRP; [8]) [µM] | Contractile Force of Auricle Muscles (left auricle muscle; 1 × 10^−4 M) [%] | Contractile Force of Auricle Muscles (left auricle muscle; 1 × 10^−5 M) [%] | Contractile Force of Auricle Muscles (left auricle muscle; 1 × 10^−6 M) [%] | Contractile Force of Auricle Muscles (left auricle muscle; 1 × 10^−7 M) [%] | Contractile Force of Auricle Muscles (left auricle muscle; 3 × 10^−5 M) [%] | Contractile Force of Auricle Muscles (left auricle muscle; 3 × 10^−6 M) [%] | Contractile Force of Auricle Muscles (left auricle muscle; 3 × 10^−7 M) [%] | LD50 [1, 9] [mg/kg] | LD50 [1, 10] [mg/kg] | NO production by LPS in macrophage cell ([2]; compound 10 μM) [µM] | NO production by LPS in macrophage cell ([2]; compound 50 μM) [µM] | NO production by LPS in macrophage cell ([2]; compound 100 μM) [µM] | survival after six days (LPS-injected rat; [11]) [%] | serum level of AST ([3]; LPS 15 mg/kg i.v. 4 hours) | effect on contractile force of auricle muscles (left auricle muscle) | other results
1 | Oc1ccc(C[C@@H]2NCCc3cc(O)c(O)cc32)cc1 [Formula 3, (S)-6,7-Dihydroxy-1-(p-hydroxyphenylmethyl)-1,2,3,4-tetrahydroisoquinoline] | > 1000 | 25 | 9.1 | 450 | 1.6 | 300 | 300 | 250 | 140 | 300 | 290 | 180 | 450 | 154 | 30.5 | 22.3 | 18.2 | 80 | at the normal level | – | inhibitory effect on epinephrine-induced platelet aggregation, times as strong as R-enantiomer (rat PRP): about nine times as strong; inhibitory effect on epinephrine-induced platelet aggregation, times as strong as racemic mixture (rat PRP): about five times as strong; inhibition of platelet aggregation induced by ADP (rat PRP): did not inhibit; survival at 30 mg/kg than 15 mg/kg (LPS-injected rat): increased; serum level of FDP compared with R-configuration [3]: lower; platelet concentration compared with R-configuration ([3]; FIG. 2): higher; serum level of BUN, formula 3 versus formula 4 ([3]; LPS 15 mg/kg i.v. 4 hours): no difference
2 | Oc1ccc(C[C@H]2NCCc3cc(O)c(O)cc32)cc1 [Formula 4, (R)-6,7-Dihydroxy-1-(p-hydroxyphenylmethyl)-1,2,3,4-tetrahydroisoquinoline] | ≥ 1000 | 15 | 11 | 300 | 14 | 300 | 200 | 130 | 100 | 250 | 160 | 100 | 262 | 95 | 20.1 | 10.3 | 8.2 | 60 | at the normal level | increased | inhibition of platelet aggregation induced by ADP (rat PRP): did not inhibit; inhibition of production of NO [2]: inhibited production of NO weakly than S-enantiomer did; survival after six days (LPS-injected rat; [12]): 67%; serum level of BUN, formula 3 versus formula 4 ([3]; LPS 15 mg/kg i.v. 4 hours): no difference
3 | Oc1cc2c(cc1O)[C@H](Cc1cccc3ccccc13)NCC2 [Formula 5] | 240 | 16 | 5.6 | 69 | 0.38 | 700 | 630 | 450 | 200 | 660 | 550 | 280 | 397 | 172 | 21.3 | 14.8 | 14.2 | 100 | – | strongly increased | inhibitory effect on epinephrine-induced platelet aggregation, times as strong as R-enantiomer (rat PRP): about six times as strong; inhibitory effect on epinephrine-induced platelet aggregation, times as strong as racemic mixture (rat PRP): about five times as strong; inhibition of production of NO [2]: strongly inhibited production of NO; survival after six days (LPS-injected rat; [12]): 100%; survival at 30 mg/kg than 15 mg/kg (LPS-injected rat): increased; platelet concentration, higher than with R-configuration ([3]; 10 mg/kg oral, LPS 15 mg/kg i.v. 4 hours): 20%; serum level of FDP compared with R-configuration [3]: lower
4 | Oc1cc2c(cc1O)[C@@H](Cc1cccc3ccccc13)NCC2 [Formula 6, (R)-6,7-Dihydroxy-1-(α-naphthylmethyl)-1,2,3,4-tetrahydroisoquinoline] | 540 | 20 | 11 | 140 | 2.4 | 50 | 50 | 75 | 100 | 50 | 50 | 87 | 230 | 88 | 36 | 34 | 38 | 73 | at the normal level | no effect | inhibition of production of NO [2]: never or slightly inhibited production of NO; survival after six days (LPS-injected rat; [12]): 93%
